The results in this text go back to US9844550B2, “Phtalazinone derivatives and manufacturing process thereof” (ILDONG PHARM CO., LTD., priority 2013, dated 2017).

A value given as a limit tells only on which side of the number the result lay.

The test system of assay [1] is MDA-MB-436 breast cancer cell line. The assay can be described thus: Cell viability assay (MDA-MB-436). The class given is cell-based. Conditions: Homo sapiens, 144 h; MDA-MB-436 cells, treated 6 days. How it is done:
2. Cell Viability Assay (MDA-MB-436)
Cell viability assay was performed by using MDA-MB-436 cell line to measure cytotoxicity of compounds in the present invention. MDA-MB-436 breast cancer cell line was seeded into 96-well plates at 37° C. under 5% CO2 atmosphere using DMEM/F12 (Gibco) containing 10% FBS (Hyclone). After 24 hr incubation, cells were treated with the invented compounds at various concentrations for 6 days. The medium was changed every 3 day. 6 days later, A fluorescence reagent was used to determine the IC50 values.

Assay [2] deals with Capan-1 pancreatic cancer cell line. Kind of assay: Cell viability assay (Capan-1). It is filed as cell-based. The conditions noted are these: Homo sapiens, 240 h; Capan-1 cells, treated 10 days. The method, then:
3. Cell Viability Assay (Capan-1)
Cell viability assay was performed by using Capan-1 cell line to measure cytotoxicity of compounds in the present invention. Capan-1 pancreatic cancer cell line was seeded into 96-well plates at 37° C. under 5% CO2 atmosphere using IMDM (Sigma) containing 10% FBS (Hyclone). After 24 hr incubation, cells were treated with the invented compounds at various concentrations for 10 days. After 7-day incubation, the medium was changed. 10 days later, A fluorescence reagent was used to determine the IC50 values.

For `O=C(c1cc(Cc2n[nH]c(=O)c3ccccc23)ccc1F)N1CC(NC2CCCCC2)C1` [Compound I-28, 4-(3-(3-(cyclohexylamino)azetidine-1-carbonyl)-4-fluorobenzyl)phthalazin-1(2H)-one], the results for the IC50 in assay [1] and in assay [2] were 5 to 50 nM and 300 to 1000 nM, respectively.

Turning to `O=C(c1cc(Cc2n[nH]c(=O)c3ccccc23)ccc1F)N1CC[C@@H](NC2CCCC2)C1` [Compound I-31, (R)-4-(3-(3-(cyclopentylamino)pyrrolidine-1-carbonyl)-4-fluorobenzyl)phthalazin-1(2H)-one], the IC50 in assay [1] was 5 to 50 nM; in assay [2], 50 to 300 nM.

On to `CC(CO)NC1CN(C(=O)c2cc(Cc3n[nH]c(=O)c4ccccc34)ccc2F)C1` (stereo not drawn) [Compound I-36, 4-(4-fluoro-3-(3-((1-hydroxypropan-2-yl)amino)azetidine-1-carbonyl)benzyl)phthalazin-1(2H)-one], for which the IC50 is 5 to 50 nM in assay [1] and 300 to 1000 nM in assay [2].

Regarding `CCC(CC)NC1CN(C(=O)c2cc(Cc3n[nH]c(=O)c4ccccc34)ccc2F)C1` [Compound I-40, 4-(4-fluoro-3-(3-(pentan-3-ylamino)azetidine-1-carbonyl)benzyl)phthalazin-1(2H)-one], the half-maximal inhibitory concentration (IC50) was 5 to 50 nM in assay [1] and 300 to 1000 nM in assay [2].

As for `CC(C)C(C)NC1CN(C(=O)c2cc(Cc3n[nH]c(=O)c4ccccc34)ccc2F)C1` (stereo not drawn) [Compound I-41, 4-(4-fluoro-3-(3-((3-methylbutan-2-yl)amino)azetidine-1-carbonyl)benzyl)phthalazin-1(2H)-one], the IC50 in assay [1] was not above 5 nM; in assay [2] it was 300 to 1000 nM.

With `CC(NC1CN(C(=O)c2cc(Cc3n[nH]c(=O)c4ccccc34)ccc2F)C1)C1CC1` (stereo not drawn) [Compound I-42, 4-(3-(3-((1-cyclopropylethyl)amino)azetidine-1-carbonyl)-4-fluorobenzyl)phthalazin-1(2H)-one], the IC50 is not above 5 nM in assay [1] and 300 to 1000 nM in assay [2].

In the case of `O=C(c1cc(Cc2n[nH]c(=O)c3ccccc23)ccc1F)N1CC(NC2CC3CCC2C3)C1` (stereo not drawn) [Compound I-43, 4-(3-(3-(bicyclo[2.2.1]heptan-2-ylamino)azetidine-1-carbonyl)-4-fluorobenzyl)phthalazin-1(2H)-one], the results for the half-maximal inhibitory concentration (IC50) in assay [1] and in assay [2] were 5 to 50 nM and 300 to 1000 nM, respectively.

As to `CCC(C)NC1CN(C(=O)c2cc(Cc3n[nH]c(=O)c4ccccc34)ccc2F)C1` (stereo not drawn) [Compound I-44, 4-(3-(3-(sec-butylamino)azetidine-1-carbonyl)-4-fluorobenzyl)phthalazin-1(2H)-one], the concentration for half-maximal inhibition (IC50) in assay [1] was not above 5 nM; in assay [2] it was 300 to 1000 nM.

`COC[C@H](C)NC1CN(C(=O)c2cc(Cc3n[nH]c(=O)c4ccccc34)ccc2F)C1` [Compound I-82, (S)-4-(4-fluoro-3-(3-((1-methoxypropan-2-yl)amino)azetidine-1-carbonyl)benzyl)phthalazin-1(2H)-one]: the IC50 in assay [1] lay within 5 to 50 nM; in assay [2], 300 to 1000 nM.

Regarding `CC(C#N)NC1CN(C(=O)c2cc(Cc3n[nH]c(=O)c4ccccc34)ccc2F)C1` (stereo not drawn) [Compound I-100, 2-((1-(2-fluoro-5-((4-oxo-3,4-dihydrophthalazin-1-yl)methyl)benzoyl)azetidin-3-yl)amino)propanenitrile], the half-maximal inhibitory concentration (IC50) in assay [1] and in assay [2] was 300 to 1000 nM each time.

`O=C(c1cc(Cc2n[nH]c(=O)c3ccccc23)ccc1F)N1CC[C@@H](Nc2cc(C(F)(F)F)ccn2)C1` [Compound I-132, (R)-4-(4-fluoro-3-(3-((4-(trifluoromethyl)pyridin-2-yl)amino)pyrrolidine-1-carbonyl)benzyl)phthalazin-1(2H)-one]: the figures for the IC50 in assay [1] and in assay [2] were not above 5 nM and 5 to 50 nM, respectively.

Take `O=C(c1cc(Cc2n[nH]c(=O)c3ccccc23)ccc1F)N1CC(NCc2ccccc2)C1` [Compound I-133, 4-(3-(3-(benzylamino)azetidine-1-carbonyl)-4-fluorobenzyl)phthalazin-1(2H)-one]: the IC50 in assay [1] fell in the range of 50 to 300 nM.

Turning to `O=C(c1cc(Cc2n[nH]c(=O)c3ccccc23)ccc1F)N1CC(NCCC(F)(F)F)C1` [Compound I-134, 4-(4-fluoro-3-(3-((3,3,3-trifluoropropyl)amino)azetidine-1-carbonyl)benzyl)phthalazin-1(2H)-one], the IC50 in assay [1] fell in the range of 50 to 300 nM.

Take `O=C(c1cc(Cc2n[nH]c(=O)c3ccccc23)ccc1F)N1CC[C@@H](N2CCCC2)C1` [Compound I-136, (R)-4-(3-([1,3′-bipyrrolidine]-1′-carbonyl)-4-fluorobenzyl)phthalazin-1(2H)-one]: in assay [1], the half-maximal inhibitory concentration (IC50) lay within 5 to 50 nM.

`O=C(c1cc(Cc2n[nH]c(=O)c3ccccc23)ccc1F)N1CC[C@@H](N2CCCCC2)C1` [Compound I-137, (R)-4-(4-fluoro-3-(3-(piperidin-1-yl)pyrrolidine-1-carbonyl)benzyl)phthalazin-1(2H)-one] returned an IC50 in assay [1] of 50 to 300 nM.

On to `Cc1ccc(N[C@@H]2CCN(C(=O)c3cc(Cc4n[nH]c(=O)c5ccccc45)ccc3F)C2)cc1` [Compound I-138, (R)-4-(4-fluoro-3-(3-(p-tolylamino)pyrrolidine-1-carbonyl)benzyl)phthalazin-1(2H)-one], for which the IC50 in assay [1] is 300 to 1000 nM.

Turning to `CC(C)NCC1CN(C(=O)c2cc(Cc3n[nH]c(=O)c4ccccc34)ccc2F)C1` [Compound I-144, 4-(4-fluoro-3-(3-((isopropylamino)methyl)azetidine-1-carbonyl)benzyl)phthalazin-1(2H)-one], in assay [1], the IC50 was not above 5 nM.

On to `O=C(c1cc(Cc2n[nH]c(=O)c3ccccc23)ccc1F)N1CC(CNCC2CC2)C1` [Compound I-145, 4-(3-(3-(((cyclopropylmethyl)amino)methyl)azetidine-1-carbonyl)-4-fluorobenzyl)phthalazin-1(2H)-one], for which, in assay [1], the 50% inhibitory concentration (IC50) is 5 to 50 nM.

Consider `N#CC1(CNCC2CN(C(=O)c3cc(Cc4n[nH]c(=O)c5ccccc45)ccc3F)C2)CC1` [Compound I-151, 1-((((1-(2-fluoro-5-((4-oxo-3,4-dihydrophthalazin-1-yl)methyl)benzoyl)azetidin-3-yl)methyl)amino)methyl)cyclopropanecarbonitrile], for which, in assay [1], the IC50 lay within 300 to 1000 nM.

In assay [1], `C#CCN(CC1CN(C(=O)c2cc(Cc3n[nH]c(=O)c4ccccc34)ccc2F)C1)C1CC1` [Compound I-153, 4-(3-(3-((cyclopropyl(prop-2-yn-1-yl)amino)methyl)azetidine-1-carbonyl)-4-fluorobenzyl)phthalazin-1(2H)-one] yielded an IC50 of 300 to 1000 nM.

Turning to `CN(CC1CN(C(=O)c2cc(Cc3n[nH]c(=O)c4ccccc34)ccc2F)C1)C1CC1` [Compound I-154, 4-(3-(3-((cyclopropyl(methyl)amino)methyl)azetidine-1-carbonyl)-4-fluorobenzyl)phthalazin-1(2H)-one], in assay [1], the half-inhibitory concentration (IC50) fell in the range of 300 to 1000 nM.

In assay [1], `CCN(CC1CN(C(=O)c2cc(Cc3n[nH]c(=O)c4ccccc34)ccc2F)C1)C1CC1` [Compound I-155, 4-(3-(3-((cyclopropyl(ethyl)amino)methyl)azetidine-1-carbonyl)-4-fluorobenzyl)phthalazin-1(2H)-one] showed an IC50 of 50 to 300 nM.

In general, IC50 refers to the point on the concentration scale where inhibition reaches its midpoint. Higher therefore signals weaker potency in that assay.
